Values of other authors as cited in patent US20230310429A1, “FORMULATIONS FOR REDUCING HAIR LOSS AND/OR INCREASING HAIR REGROWTH” (TRIPLE HAIR INC., priority 2020, published 2023).
Where two headings read alike, the source gives them in different places.

Experiments:
[1] = not given; remark: listed apart in the source
regrowth of the hair = conditions: topical
[2] = test system: prostaglandin endoperoxide synthase-1 (PGHS-1); conditions: oxygen consumption in PGE2 production; Michelet et al. 1997
[3] = not given; remark: listed apart in the source

Row | Structure (SMILES) | solubility (in words) (acetone) | solubility (in words) (acetonitrile) | solubility (in words) (ethanol) | solubility (in words) (ethyl acetate) | solubility (in words) (isopropanol) | solubility (in words) (methanol) | solubility (in words) (octanol) | solubility (in words) (water) | other adverse effects ([1]; in vivo) | side effect on periocular hair and eyelashes ([1]; ophthalmic use) | solubility (in words) (0.1N HCl) | solubility (in words) (0.1N NaOH) | solubility (in words) (DMSO) | solubility (in words) (chloroform) | solubility (in words) (n-propanol) | solubility (in words) (polyethylene glycol 400) | solubility (in words) (propylene glycol) | effective in promoting regrowth of the hair (regrowth of the hair) | activation of purified PGHS-1 [2] | pKa [3]
1 | CC(C)OC(=O)CCC/C=C\C[C@@H]1[C@@H](CC[C@@H](O)CCc2ccccc2)[C@H](O)C[C@@H]1O [Latanoprost] | freely soluble | very soluble | freely soluble | freely soluble | freely soluble | freely soluble | freely soluble | practically insoluble | erythema, folliculitis, sensation of burning and erysipelas | augmentation of periocular hirsuteness | – | – | – | – | – | – | – | – | – | –
2 | CC(C)(C)NC(=O)[C@H]1CC[C@H]2[C@@H]3CC[C@H]4NC(=O)C=C[C@]4(C)[C@H]3CC[C@]12C [Finasteride, ((5α,17β)-N-(1,1-Dimethylethyl)-3-oxo-4-azaandrost-1-ene-17-carboxamide)] | – | – | freely soluble | – | – | freely soluble | – | not soluble | – | – | very slightly soluble | very slightly soluble | freely soluble | freely soluble | freely soluble | sparingly soluble | sparingly soluble | – | – | –
3 | Nc1cc(N2CCCCC2)nc(N)[n+]1[O-] [Minoxidil, (6-(1-pipedidinyl)-2,4-pyrimidinediamine 3-oxide)] | – | – | – | – | – | – | – | – | – | – | – | – | – | – | – | – | – | less than 40% | potent activator | 4.61
